# Reference: PMC8003485, “Synthesis and Evaluation of Novel α-Aminoamides Containing Benzoheterocyclic Moiety for the Treatment of Pain” (Molecules, 2021)
# Where two headings read alike, the source gives them in different places.
# Columns and labels:
# ICR (CD−1) male mice [1] = assay: Formalin test (mouse, phase II paw licking); type: in vivo
# Description: The formalin test was carried out using the method described previously. During the formalin test, Institute of Cancer Research (ICR; CD−1) male mice (weight: 22–25 g) were acclimated to the environment for two days before the experiment with food and water available freely. The mice were housed under a 12 h/12 h light/dark cycle. The temperature and humidity of the room were kept at 25 ± 2 °C and 50–60%, respectively. The mice were divided into a vehicle group, a ralfinamide group, and test compound groups randomly, with eight mice in each group. All compounds were dissolved in saline and administered by intraperitoneal injection (n = 8) or intragastric administration by mouth (n = 8) at 10 mg/kg. The vehicle group was given the same volume of saline.
# After administration, the mice were placed into polyvinyl chloride (PVC) observation chambers. Thirty minutes later, the mice were injected subcutaneously with 20 μL of 2.7% formalin solution into the surface of their right hind paw and were returned to their PVC chambers immediately to observe their behavior. The cumulative time each mouse licked its right hind paw during phase II (15–30 min) was recorded as its painful time in phase II. The analgesic effects of the compounds were presented as the mean ± standard deviation. The data were analyzed by SPSS using one-way analysis of variance followed by Dunnett’s test. The analgesic activity of the test compounds was calculated according to the following formula. %Analgesia=Average Time (Vehicle)−Average Time (Drug)/Average Time (Vehicle)× 100%
# ICR (CD-1) male mice = assay: Acetic acid-induced writhing test; type: in vivo; settings: 10 mg/kg, i.p.; writhes in 20 min; mean ± SD, n = 6
# Description: The writhing test was performed according to a previously reported method. The ICR (CD-1) male mice (weight: 22–25 g) were treated as for the formalin test in the same environment. The mice were divided into a vehicle group, a ralfinamide group, and test compound groups randomly, with six mice in each group. All compounds were dissolved in saline and administered by intraperitoneal injection at 10 mg/kg. The vehicle group was given the same volume of saline. After administration, the mice were placed into PVC chambers. Thirty minutes later, the mice were injected with 1% acetic acid solution at 10 mL/kg by intraperitoneal injection and placed into the observation chambers immediately to record the number of writhes each mouse had in 20 min. The results were presented as the mean ± standard deviation. The analytical method was the same as that for the formalin test, and the analgesic activity of each compound was calculated by the following formula. %Analgesia=Average Number (Vehicle)−Average Number (Drug)/Average Number (Vehicle)× 100%
# hNav1.7 = biological target: T1, hNav1.7 (Homo sapiens, UniProt Q15858); assay: Whole-cell patch clamp assay for hNav1.7 inhibition (HEK293 cells stably expressing hNav1.7); type: cell-based; settings: for inhibition at 10 µM: HEK293, TTX-sensitive Nav1.7 current, mean ± SD
# T1 construct: expressed in transfected cells; host or cells: HEK293
# T1 sequence (Q15858 whole entry): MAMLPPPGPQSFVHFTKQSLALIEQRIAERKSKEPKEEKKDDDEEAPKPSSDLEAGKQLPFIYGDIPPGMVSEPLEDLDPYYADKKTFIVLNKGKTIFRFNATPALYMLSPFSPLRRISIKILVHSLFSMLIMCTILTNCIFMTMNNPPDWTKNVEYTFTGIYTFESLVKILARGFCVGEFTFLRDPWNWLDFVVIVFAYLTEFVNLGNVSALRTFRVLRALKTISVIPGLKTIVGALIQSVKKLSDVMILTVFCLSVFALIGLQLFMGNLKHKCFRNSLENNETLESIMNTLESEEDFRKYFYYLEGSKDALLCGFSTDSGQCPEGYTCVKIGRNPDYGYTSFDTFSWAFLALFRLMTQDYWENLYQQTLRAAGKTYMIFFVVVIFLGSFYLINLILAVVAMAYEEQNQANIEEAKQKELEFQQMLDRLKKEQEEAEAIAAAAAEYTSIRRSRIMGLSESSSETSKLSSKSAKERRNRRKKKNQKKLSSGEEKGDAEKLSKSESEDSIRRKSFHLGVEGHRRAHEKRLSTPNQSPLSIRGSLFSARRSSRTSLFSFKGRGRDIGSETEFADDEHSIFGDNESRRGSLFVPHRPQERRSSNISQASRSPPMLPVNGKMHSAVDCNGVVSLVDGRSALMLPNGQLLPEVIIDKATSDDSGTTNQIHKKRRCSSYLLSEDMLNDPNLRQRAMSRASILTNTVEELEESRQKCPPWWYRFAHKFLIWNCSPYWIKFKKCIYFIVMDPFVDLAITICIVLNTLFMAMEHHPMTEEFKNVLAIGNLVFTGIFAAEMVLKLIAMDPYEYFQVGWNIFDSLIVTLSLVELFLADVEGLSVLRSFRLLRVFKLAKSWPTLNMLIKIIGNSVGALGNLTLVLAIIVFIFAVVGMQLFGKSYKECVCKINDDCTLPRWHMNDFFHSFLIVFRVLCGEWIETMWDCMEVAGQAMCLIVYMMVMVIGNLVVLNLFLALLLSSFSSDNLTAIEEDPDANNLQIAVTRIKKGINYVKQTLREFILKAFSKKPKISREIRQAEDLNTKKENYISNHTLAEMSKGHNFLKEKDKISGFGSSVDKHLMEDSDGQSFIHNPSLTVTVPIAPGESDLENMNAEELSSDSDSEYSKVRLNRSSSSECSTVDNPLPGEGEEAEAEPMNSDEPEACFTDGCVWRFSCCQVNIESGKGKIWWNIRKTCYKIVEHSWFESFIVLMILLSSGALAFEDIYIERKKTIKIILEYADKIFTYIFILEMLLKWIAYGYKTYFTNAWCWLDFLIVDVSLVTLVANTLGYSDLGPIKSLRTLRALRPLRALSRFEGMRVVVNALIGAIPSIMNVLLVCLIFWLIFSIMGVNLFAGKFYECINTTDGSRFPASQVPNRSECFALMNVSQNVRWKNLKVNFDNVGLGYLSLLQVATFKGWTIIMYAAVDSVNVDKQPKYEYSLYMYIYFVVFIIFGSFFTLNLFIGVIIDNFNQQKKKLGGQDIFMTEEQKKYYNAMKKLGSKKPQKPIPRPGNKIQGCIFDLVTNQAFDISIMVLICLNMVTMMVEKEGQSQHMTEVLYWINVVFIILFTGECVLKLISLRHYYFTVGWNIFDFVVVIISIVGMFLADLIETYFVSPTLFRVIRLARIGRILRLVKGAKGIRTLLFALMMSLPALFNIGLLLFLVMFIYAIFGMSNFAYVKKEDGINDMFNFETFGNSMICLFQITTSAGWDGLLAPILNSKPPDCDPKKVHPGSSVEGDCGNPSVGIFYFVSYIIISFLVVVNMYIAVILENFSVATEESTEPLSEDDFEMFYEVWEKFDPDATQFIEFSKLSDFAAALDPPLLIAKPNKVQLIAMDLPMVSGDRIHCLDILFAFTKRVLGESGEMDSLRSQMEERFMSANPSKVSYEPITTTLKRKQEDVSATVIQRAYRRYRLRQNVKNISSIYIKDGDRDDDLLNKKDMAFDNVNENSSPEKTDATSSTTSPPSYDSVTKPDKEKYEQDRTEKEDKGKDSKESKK
# Description: The compounds were tested as hNav1.7 peak current inhibitors at room temperature using human embryonic kidney 293 cells stably expressing hNav1.7. The holding voltage was depolarized to 0 mV from −120 mV for 20 ms and restored to −75 mV for 8 s. After that, the membrane potential was recovered to −120 mV for 20 ms and then depolarized to 0 mV for another 20 ms. Finally, the voltage was renewed to −120 mV for 30 ms. The potential was applied every 20 s. The compounds were administered when the voltage of hNav1.7 recorded by the whole-cell patch clamp was stable. Every compound concentration was tested for 5 min, and all compounds were tested at several concentrations and with multiple cells.
# hNav1.8 = biological target: T2, hNav1.8 (Homo sapiens, UniProt Q9Y5Y9); assay: Whole-cell patch clamp assay for hNav1.8 inhibition (CHO cells stably expressing hNav1.8); type: cell-based
# T2 construct: expressed in transfected cells; host or cells: CHO
# T2 sequence (Q9Y5Y9 whole entry): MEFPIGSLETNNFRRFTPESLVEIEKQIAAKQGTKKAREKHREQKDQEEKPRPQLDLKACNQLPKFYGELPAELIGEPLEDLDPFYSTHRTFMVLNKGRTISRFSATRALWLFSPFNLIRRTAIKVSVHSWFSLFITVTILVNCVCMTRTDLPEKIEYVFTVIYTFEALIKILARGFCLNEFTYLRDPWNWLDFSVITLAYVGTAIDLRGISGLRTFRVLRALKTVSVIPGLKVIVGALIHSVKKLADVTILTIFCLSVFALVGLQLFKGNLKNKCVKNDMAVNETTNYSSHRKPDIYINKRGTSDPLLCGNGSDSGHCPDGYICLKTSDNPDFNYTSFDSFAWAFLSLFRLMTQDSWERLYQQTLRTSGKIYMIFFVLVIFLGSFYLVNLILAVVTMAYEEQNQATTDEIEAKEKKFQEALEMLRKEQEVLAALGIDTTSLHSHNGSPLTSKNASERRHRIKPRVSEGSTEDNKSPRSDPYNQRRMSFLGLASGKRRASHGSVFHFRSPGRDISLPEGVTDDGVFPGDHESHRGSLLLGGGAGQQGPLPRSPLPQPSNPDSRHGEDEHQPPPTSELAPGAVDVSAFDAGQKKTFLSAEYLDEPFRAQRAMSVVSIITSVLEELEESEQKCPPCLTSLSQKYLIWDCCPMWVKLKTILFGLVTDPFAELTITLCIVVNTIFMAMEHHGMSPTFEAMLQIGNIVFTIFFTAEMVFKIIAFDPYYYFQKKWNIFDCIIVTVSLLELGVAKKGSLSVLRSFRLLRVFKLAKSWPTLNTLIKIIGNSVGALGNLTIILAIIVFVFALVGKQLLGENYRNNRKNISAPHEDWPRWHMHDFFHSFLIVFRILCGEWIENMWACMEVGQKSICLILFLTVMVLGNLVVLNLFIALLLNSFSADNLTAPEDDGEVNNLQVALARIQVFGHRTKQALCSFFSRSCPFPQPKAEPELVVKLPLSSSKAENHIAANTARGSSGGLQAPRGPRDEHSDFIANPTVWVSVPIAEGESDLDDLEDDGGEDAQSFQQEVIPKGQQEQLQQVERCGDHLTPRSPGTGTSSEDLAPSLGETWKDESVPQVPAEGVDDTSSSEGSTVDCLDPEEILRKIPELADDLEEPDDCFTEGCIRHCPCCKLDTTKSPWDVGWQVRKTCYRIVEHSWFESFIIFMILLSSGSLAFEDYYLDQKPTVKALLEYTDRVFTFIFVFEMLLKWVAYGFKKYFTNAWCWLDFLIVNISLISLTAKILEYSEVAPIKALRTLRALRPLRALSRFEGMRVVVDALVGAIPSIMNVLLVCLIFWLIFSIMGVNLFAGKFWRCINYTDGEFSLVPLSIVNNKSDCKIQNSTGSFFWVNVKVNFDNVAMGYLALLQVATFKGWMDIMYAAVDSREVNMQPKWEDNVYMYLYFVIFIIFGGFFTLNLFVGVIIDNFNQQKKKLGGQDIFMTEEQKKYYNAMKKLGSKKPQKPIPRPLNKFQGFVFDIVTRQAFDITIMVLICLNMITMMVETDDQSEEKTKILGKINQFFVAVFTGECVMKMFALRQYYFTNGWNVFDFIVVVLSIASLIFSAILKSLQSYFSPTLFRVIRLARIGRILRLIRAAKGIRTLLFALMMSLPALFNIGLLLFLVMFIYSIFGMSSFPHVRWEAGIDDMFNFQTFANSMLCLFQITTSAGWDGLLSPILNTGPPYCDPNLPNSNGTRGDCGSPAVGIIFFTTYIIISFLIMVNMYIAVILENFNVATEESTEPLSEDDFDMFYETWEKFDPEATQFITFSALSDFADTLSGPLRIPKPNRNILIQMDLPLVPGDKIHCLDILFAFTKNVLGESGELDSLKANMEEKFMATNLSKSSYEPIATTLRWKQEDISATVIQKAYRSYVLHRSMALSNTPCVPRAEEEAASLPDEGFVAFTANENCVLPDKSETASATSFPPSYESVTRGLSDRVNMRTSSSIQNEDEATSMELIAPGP
# Description: The whole-cell patch clamp assay assessing the hNav1.8 current was carried out at room temperature with Chinese hamster ovary cells stably expressing hNav1.8. The holding voltage of the membrane was transferred to 0 mV from −120 mV for 50 ms and then restored to −50 mV for 8 s. After that, the membrane potential was renewed to −120 mV for 20 ms, which was followed by a depolarization to 0 mV for 50 ms. Finally, the potential was recovered to the holding voltage of −120 mV for 30 ms. This process was performed every 20 s. The compounds were administered when the voltage of hNav1.8 was stable. Every compound concentration was tested for 5 min, and all compounds were tested at several concentrations and with multiple cells.
# hNav1.5 = biological target: T3, hNav1.5 (Homo sapiens, UniProt Q14524); assay: Assay for hNav1.5 inhibition (HEK293 cells stably expressing hNav1.5); type: cell-based
# T3 construct: expressed in transfected cells; host or cells: HEK293
# Description: The inhibition of the compounds to hNav1.5 peak current was performed at room temperature using HEK293 cells that could express hNav1.5 stably. The holding voltage of the membrane was transferred to 0 mV from −120 mV for 50 ms and then restored to −50 mV for 8 s. After that, the membrane potential was renewed to −120 mV for 20 ms, followed by a depolarization to 0 mV for 50 ms. At last, the potential was recovered to the holding voltage −120 mV for 30 ms. This progress was performed every 20 s. The compounds were administrated when the voltage of hNav1.5 was stable. Every concentration was tested for 5 min and all compounds were tested at several concentrations and with multiple cells.
# mouse [2] = assay: Mouse hotplate assay; type: in vivo; settings: even at a high dose of 100 mg/kg; data not shown
# mouse [3] = assay: Mouse tail flick assay; type: in vivo; settings: even at a high dose of 100 mg/kg; data not shown
# ICR (CD−1) male mice [4] = assay: Formalin test (mouse, phase II paw licking); type: in vivo; remark: listed apart in the source
compound,measurement,setting,value
"C[C@H](NCc1cccc(COc2cccc3occc23)c1)C(N)=O [Compound 6a, (S)-2-((3-((Benzofuran-4-yloxy)methyl)benzyl)amino)propanamide]",% Analgesia (formalin test),"ICR (CD−1) male mice [1]; 10 mg/kg, i.p., phase II (15–30 min), mean ± SD, n = 8",84.0 ± 16.2 ^☆ * %
same,inhibition in vivo at 10 mg/kg,"ICR (CD−1) male mice [1]; Mus musculus, ip, 10 mg/kg, i.p., phase II (15–30 min), mean ± SD, n = 8, read-out: % Analgesia (formalin test)",84%
same,Percentage of analgesia relative to ralfinamide (times higher),"ICR (CD−1) male mice [1]; formalin test, 10 mg/kg",1.5–2 times
same,Analgesic activity after intragastric administration by mouth (in words),"ICR (CD−1) male mice [1]; formalin test, oral administration assay, compared to ralfinamide",higher analgesic activity than ralfinamide
same,% Analgesia (acetic acid-induced writhing test),ICR (CD-1) male mice,49.7 ± 11.3 ^☆ %
same,inhibition at 10 µM,"hNav1.7; read-out: Inhibitory Effect against Nav1.7, Activated State (TP−1)",15.6 ± 0.8%
same,inhibition at 10 µM,"hNav1.7; read-out: Inhibitory Effect against Nav1.7, Inactivated State (TP−2)",61.8 ± 0.2%
same,IC50,"hNav1.7; Table 4, TTX-sensitive inactivated Nav1.7 current",2.3 ± 0.2 µM
same,Nav1.7 IC50 compared to ralfinamide (in words),"hNav1.7; ratio of IC50 values, Table 4",three times lower
same,IC50,hNav1.8; Nav1.8 inactivated state Na+ currents,4.3 ± 0.5 µM
same,Potency against Nav1.8 compared to ralfinamide (in words),"hNav1.8; ratio of IC50 values, Table 5",nearly nine-fold more potent
same,inhibition at 10 µM,"hNav1.5; HEK293, 10 µM, read-out: Inhibitory Effect to Nav1.5",66.8 ± 1.5%
same,Inhibitory activity against Nav1.5 (in words),"hNav1.5; similarly to ralfinamide, low selectivity over the cardiac sodium channel",moderate inhibitory activity
same,Analgesic effect in mouse hotplate assay (in words),mouse [2],no analgesic effect
same,Analgesic effect in tail flick assay (in words),mouse [3],no analgesic effect
same,Analgesic response (formalin test),"ICR (CD−1) male mice [4]; 5 mg/kg, intraperitoneal injection, dose-effect relationship assay",69.6%
same,Dose dependence of analgesic activity (in words),"ICR (CD−1) male mice [4]; formalin test, 2.5 mg/kg, 5 mg/kg and 10 mg/kg by intraperitoneal injection",dose-dependent activity
